From patent publication US20030207830A1, “Mutant NDP kinases for antiviral nucleotide analog activation and therapeutic uses thereof” (priority 2002, published 2003) come the findings set out here.

Broadly, the Kd is the equilibrium constant for the complex coming apart. Higher therefore signals a looser complex.

Experiment [1] has as its target T1, Dictyostelium NDP Kinase N119S (Dictyostelium discoideum, UniProt P22887, N119S).
T1 construct: made in house
Put plainly: Pre-steady-state fluorescence stopped-flow phosphotransfer from nucleoside triphosphates, N119S Dd-NDPK. Format: biochemical. To be noted: for times faster reaction with the N119S enzyme than wild type: from Table I; for k2/Ks N119S (catalytic efficiency of phosphotransfer): pre-steady state, stopped-flow, average of three determinations. As to the method:
(§1) All numbers in italics have already been published (Schneider, 1998, 2000) The kinetic constants were measured at the pre-steady-state level using a fluorescence stopped-flow device. The binding constants were determined at equilibrium by recording the increase in fluorescence (Schneider, 2000). Values are the average of three independent determinations.
As the diphosphate form of analogs were not always available, the triphosphate analogs were used to study phosphate transfer in reaction as in Scheme I. Experiments were performed with an Hi-Tech DX2 microvolume stopped-flow reaction (Schneider, 1998) at Aexc=296 nm (for Ado derivatives) or […] (for other nucleotides), 2 mm excitation slit and a 320 nm cutoff filter at the emission. After mixing NDPK (1 μM) and NTP or an analogTP (10-500 μM), the intrinsic protein fluorescence was recorded for 10-200 sec. In each experiment, 400 pairs of data were recorded, and the data from 3-4 identical experiments were averaged and fitted to a number of non-linear analytical equations using the software provided by Hi-Tech. All curves fitted to single exponentials.
The data were analyzed using the reaction scheme: [drawing 1]
In both the forward and the reverse reactions, the product concentration remains very low, thus the product binding can be neglected, and the observed single step could be attributed to the phosphotransfer (Schneider, 1998). The rate of this observed single step is: [formula]
and reaches a limiting value (k+2) at NTP saturation. Saturation could not be obtained with the concentrations of any NTP used here. Therefore, catalytic efficiencies of phosphorylation (CEphos=k+2/(k−1/k+1)=k+2/KS) were measured, which are equivalent to second order constants and allow a reliable comparison of a variety of NDP kinase substrates.

In experiment [2] the target is T2, Inactive-N119S Dd-NDPK (EI-N119S) (Dictyostelium discoideum, UniProt P22887, F64W/H122G/N119S).
T2 construct: made in house
T2 sequence (P22887 whole entry F64W/N119S/H122G): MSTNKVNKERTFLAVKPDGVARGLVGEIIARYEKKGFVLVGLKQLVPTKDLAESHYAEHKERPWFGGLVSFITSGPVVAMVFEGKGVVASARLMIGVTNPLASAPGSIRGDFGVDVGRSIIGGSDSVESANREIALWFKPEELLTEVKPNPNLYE
Put plainly: Equilibrium fluorescence titration of nucleotide binding, inactive Dd-NDPK variant with N119S. Conditions: relative affinity of NTP for both enzymes. The procedure:
as §1
In contrast to what is observed with natural nucleotides, the Ser mutation specifically improves the catalytic efficiency with nucleotides analogs as shown in Table I; ddGTPs and AZT-TP react, respectively, 1.5 and 4 times faster with the N119S enzyme. […] Analog binding affinity was measured using a variant of Dd-NDPK (EI) as described (Schneider, 2000). This mutant (H122G-F64W) lacks the catalytic histidine, and a tryptophan replaces the phenylalanine stacking on the base in the active site (Schneider, 2000). The mutation N119S was inserted in EI in order to measure the nucleotide affinity by fluorescence titration. The Ser contribution to the binding was evaluated from the relative affinity of NTP for both enzymes (Table I).
for N119S, N119T and N119Y mutations, respectively. Altered bases as compared to the wild type sequence are underlined in bold. Sequences were checked by automatic sequencing. The mutant EI-N119S was obtained by mutation of the previously described F64W-H122G mutated NDP kinase (here called EI) (Schneider 2000).

In experiment [3] the target is T3, Dictyostelium discoideum NDP kinase inactive variant EI (H122G-F64W) (Dictyostelium discoideum, UniProt P22887, F64W/H122G).
T3 construct: made in house
T3 sequence (P22887 whole entry F64W/H122G): as the sequence (P22887 whole entry F64W/N119S/H122G) above, with S119N counted along it
Put plainly: biochemical. Format: binding. The procedure:
(§2) The binding constants were determined at equilibrium by recording the increase in fluorescence (Schneider, 2000).
(§3) Analog binding affinity was measured using a variant of Dd-NDPK (EI) as described (Schneider, 2000). […] The mutation N119S was inserted in EI in order to measure the nucleotide affinity by fluorescence titration.
(§4) Altered bases as compared to the wild type sequence are underlined in bold. Sequences were checked by automatic sequencing. The mutant EI-N119S was obtained by mutation of the previously described F64W-H122G mutated NDP kinase (here called EI) (Schneider 2000).

Experiment [4] deals with T4, Dictyostelium discoideum NDP kinase inactive variant EI-N119S (H122G-F64W-N119S) (Dictyostelium discoideum, UniProt P22887, F64W/H122G/N119S).
T4 construct: made in house
T4 sequence (P22887 whole entry F64W/N119S/H122G): as the sequence (P22887 whole entry F64W/N119S/H122G) above
Kind of experiment: biochemical. Format: binding. Conditions: for increase of affinity by Ser (N119S): relative KD, EI versus EI-N119S. The procedure: as §2, §3, §4

Experiment [5] concerns the target T5, human NDP kinase A (NDPK-A) variant L55H-N115S, SEQ ID NO: 3 (Homo sapiens, UniProt P15531, L55H/N115S).
T5 construct: made in house; host or cells: E. coli
Put plainly: Pre-steady-state phosphotransfer, fluorescence stopped-flow. To be noted: for k2/Ks: catalytic efficiency of phosphotransfer, L55H-N115S, pre-steady state; for Specificity change (R): ratio of catalytic efficiencies analog vs natural nucleotide, mutant vs wild type. Format: biochemical.

The target of experiment [6] is T6, human NDP kinase A (NDPK-A) variant N115S, SEQ ID NO: 2 (Homo sapiens, UniProt P15531, N115S).
T6 construct: made in house; host or cells: E. coli
T6 sequence (P15531 whole entry N115S): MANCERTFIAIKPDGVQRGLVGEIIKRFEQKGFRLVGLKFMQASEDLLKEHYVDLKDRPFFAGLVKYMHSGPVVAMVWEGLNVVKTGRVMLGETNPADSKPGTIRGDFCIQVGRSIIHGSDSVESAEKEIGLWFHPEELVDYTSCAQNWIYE
The description is as above. Format: biochemical. To be noted: for k2/Ks: catalytic efficiency of phosphotransfer, N115S, pre-steady state; for Specificity change (R): ratio of catalytic efficiencies analog vs natural nucleotide, mutant vs wild type.

T1 sequence (P22887 whole entry N119S): as the sequence (P22887 whole entry F64W/N119S/H122G) above, with W64F, G122H counted along it
T5 sequence (P15531 whole entry L55H/N115S): as the sequence (P15531 whole entry N115S) above, with L55H counted along it

In the case of `Nc1nc2c(ncn2[C@H]2CC[C@@H](COP(=O)(O)OP(=O)(O)OP(=O)(O)O)O2)c(=O)[nH]1` [ddGTP, dideoxy-GTP], in experiment [1], the “times faster reaction with the N119S enzyme than wild type” value is listed as 1.5 times and the “k2/Ks N119S (catalytic efficiency of phosphotransfer)” value turned out to be 3500 M⁻¹ s⁻¹. For the same compound, the “factor by which Ser 119 reinforces affinity (EI-N119S versus EI)” value in experiment [2] is 2 fold. In experiment [3], binding was put at a Kd of 3500 nM. Moreover, in experiment [4], binding was put at a Kd of 2000 nM and the “increase of affinity by Ser (N119S)” value is given as 2 fold. Also, in experiment [5], the k2/Ks was determined as 4200 M⁻¹ s⁻¹ and the “Specificity change (R)” value is given as “(160)”. In addition, in experiment [6], the k2/Ks came out at 750 M⁻¹ s⁻¹ and the “Specificity change (R)” value is on record as “(60)”.
As to `Cc1cn([C@H]2C[C@H](N=[N+]=[N-])[C@@H](COP(=O)(O)OP(=O)(O)OP(=O)(O)O)O2)c(=O)[nH]c1=O` [AZT-TP], in experiment [1], the “times faster reaction with the N119S enzyme than wild type” value came out at 4 times and the “k2/Ks N119S (catalytic efficiency of phosphotransfer)” value was determined as 1100 M⁻¹ s⁻¹. Also, the “factor by which Ser 119 reinforces affinity (EI-N119S versus EI)” value in experiment [2] came to 15 fold. Besides, binding in experiment [3] was characterised by a dissociation constant (Kd) of 30000 nM. In experiment [4], the Kd was found to be 2200 nM and the “increase of affinity by Ser (N119S)” value came out at 15 fold. Also, in experiment [5], the k2/Ks worked out at 6770 M⁻¹ s⁻¹ and the “Specificity change (R)” value is given as “(240)”. Besides, in experiment [6], the k2/Ks was 900 M⁻¹ s⁻¹ and the “Specificity change (R)” value was “(125)”.
